In patent US10851075B2, “Stat3 pathway inhibitors and cancer stem cell inhibitors” (Sumitomo Dainippon Pharma Oncology, Inc., priority 2007, dated 2020):
Where two headings read alike, the source gives them in different places.

Columns and labels:
[1] = system: H1299 cells; test: MTT cell viability, H1299; assay type: cell-based; conditions: Homo sapiens, NCI-H1299, MTT at 24 hours
Excerpt: (§1) Cell Culture: HeLa, DU145, H1299, DLD1, SW480, A549, MCF7, LN18, HCT116, HepG2, Paca2, Panel, LNcap, FaDu, HT29, and PC3 cells (ATCC, Manassas, Va.) were maintained in Dulbecco's Modified Eagle Medium (DMEM) (Invitrogen, Carlsbad, Calif.) supplemented with 10% fetal bovine serum (MS) (Gemini Bio-Products, West Sacramento, Calif.) and 5% penicillin/streptomycin/amphotercin B (Invitrogen).
(§2) Cell Viability Determination: For 3-(4,5 dimethylthiazol-2-yl)-2,5-diphenyltetrazolium (MTT) (Sigma-Aldrich, St. Louis, Mo.) analysis, cells were plated in 96 well plates at 10,000 cells per well. 24 hours after plating, compound was added to cells at indicated doses. 22 hours following compound addition, MTT was added to each well (0.5 mg/ml, final concentration) and plates were incubated for an additional 2 hours at 37° C., Medium was then aspirated and the formazan product was solubilized in 100 μl of isopropyl alcohol. The absorbance of each well was measured at 570 nm using a microplate reader.
(§3) Identification of compounds that are apoptotic to a broad spectrum of cancer cells in vitro. Cells plated in 96 well plates and treated with indicated compounds were subjected to MTT analysis at 24 hours following compound treatment to determine cell viability.

[2] = system: HeLa cells; test: MTT cell viability, HeLa; assay type: cell-based; conditions: Homo sapiens, MTT at 24 hours
Excerpt: as §1, §2, §3

[3] = system: DU145 cells; test: MTT cell viability, DU145; assay type: cell-based; conditions: Homo sapiens, DU-145, MTT at 24 hours
Excerpt: as §1, §2, §3

[4] = biological target: T1, Stat3 DNA-binding activity (Homo sapiens, UniProt P40763); test: Stat3 DNA binding assay (EMSA), HeLa nuclear extract; assay type: biochemical; conditions: for inhibition % 1 × MTT IC50: compound at 1 × MTT IC50, untreated Stat3 retarded band set as 100; for inhibition % 3 × MTT IC50: compound at 3 × MTT IC50, untreated Stat3 retarded band set as 100
T1 construct: endogenous in cells; host or cells: HeLa cells (nuclear extract)
T1 sequence (P40763 whole entry): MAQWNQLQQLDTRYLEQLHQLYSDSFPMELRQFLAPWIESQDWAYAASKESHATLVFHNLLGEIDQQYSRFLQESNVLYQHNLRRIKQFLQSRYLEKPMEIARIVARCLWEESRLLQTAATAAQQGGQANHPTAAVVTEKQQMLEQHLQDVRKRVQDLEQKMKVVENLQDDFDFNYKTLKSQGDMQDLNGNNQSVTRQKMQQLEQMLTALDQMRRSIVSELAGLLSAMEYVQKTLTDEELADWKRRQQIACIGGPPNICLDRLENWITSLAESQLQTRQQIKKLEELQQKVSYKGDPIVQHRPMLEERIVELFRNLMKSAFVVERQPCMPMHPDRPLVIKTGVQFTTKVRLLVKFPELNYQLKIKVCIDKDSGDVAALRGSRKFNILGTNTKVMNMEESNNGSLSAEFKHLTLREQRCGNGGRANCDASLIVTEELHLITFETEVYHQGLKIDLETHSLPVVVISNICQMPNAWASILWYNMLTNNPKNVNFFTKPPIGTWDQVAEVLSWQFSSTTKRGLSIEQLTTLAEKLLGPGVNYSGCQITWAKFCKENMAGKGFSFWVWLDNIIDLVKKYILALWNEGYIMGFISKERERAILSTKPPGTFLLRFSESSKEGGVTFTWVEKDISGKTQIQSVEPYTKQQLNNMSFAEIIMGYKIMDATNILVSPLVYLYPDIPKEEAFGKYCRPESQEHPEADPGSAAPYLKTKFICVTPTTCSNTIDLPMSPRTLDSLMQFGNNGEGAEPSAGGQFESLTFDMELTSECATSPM
Procedure: STAT3 DNA Binding Assay: Electrophoretic mobility shift assay (EMSA) was performed as described by the manufacturer (Li-Cor Biosciences, Lincoln, Nebr.). Briefly, nuclear extracts were made from HeLa cells using the NucBuster Protein Extraction Kit as described by the manufacturer (EMD Biosciences, San Diego, Calif.). 5 μg of nuclear extract was pre-incubated with the indicated dose of indicated compound for 30 minutes prior to a 15-minute incubation with the IR700-labeled consensus Stat3 oligonucleotide. Samples were then electrophoresed on a polyacrylamide gel and directly scanned using the Odyssey infrared imaging system (Li-Cor Biosciences). For the enzyme-linked immunosorbent assay (ELISA), 5 μg of nuclear extract was preincubated with indicated concentration of indicated compound for 30 minutes prior to the addition of biotinylated oligo (5′-Biotin-[…]-3′). Stat3-DNA complexes were then captured on streptavidin coated 96 well plates (Pierce, Rockford, Ill.). Bound complexes were then incubated with Stat3 polyclonal antibody (Santa Cruz Biotechnology, Santa Cruz, Calif.) followed by anti-rabbit HRP conjugated secondary antibody (GE Healthcare, Pittsburgh, Pa.). Bound antibody was then visualized by addition of TMB substrate (Pierce) and absorbance measured at 450 nm.
Inhibition of Stat3 DNA-binding activity. Nuclear extracts from HeLa cells, which contain constitutively activated Stat3 as detected by phoshporylation at the tyrosine 705 residue, were used to perform Stat3 EMSAs to monitor Stat3 DNA binding activity. Nuclear extracts were incubated with indicated compound prior to incubation with IR700-labeled Stat3 consensus oligonucleotide. Binding of Stat3 to the oligonucleotide was monitored by gel electrophoresis and detection using a LiCor Odyssey infrared scanner.
To calculate the inhibition %, the density of the untreated Stat3 retarded band (control) was set as 100 and the inhibition % was the difference between the control and the relative DNA binding activity of the drug-treated samples.

[5] = system: Stat3 transcription activity; test: Stat3-luciferase (Stat3-Luc) reporter assay in HeLa cells, OSM stimulated; assay type: cell-based; conditions: Homo sapiens, compound 30 minutes before 25 ng/ml oncostatin M, 6 hours, read-out: IC50 in Stat3-Luc assays
Procedure: Luciferase Reporter Assay: HeLa Cells were co-transfected with Stat3-luciferase (Stat3-Luc) reporter vector (Panomics, Fremont, Calif.) and Renilla luciferase (Promega, Madison, Wis.) using Lipofectamine 2000 as described by the manufacturer (Invitrogen). Following transfection, cells were maintained in medium containing 0.5% FBS for 24 hours. Cells were then treated with the indicated compound for 30 minutes prior to the addition of 25 ng/ml oncostatin M (OSM) (R&D Systems, Minneapolis, Minn.) to the medium. 6 hours following OSM addition, cells were harvested and levels of firefly and renilla luciferase were measured using the Dual-Glo Luciferase Assay System as described by the manufacturer (Promega).
Inhibition of Stat3 transcription activity. Compounds were tested for their ability to inhibit Stat3 transcription activation activity in cells using a Stat3-luciferase (Stat3-luc) reporter construct. Cells transfected with Stat3-luc were cultured in reduced serum medium prior to addition of indicated compound for 30 minutes. Cells were then stimulated with 25 ng/ml oncostatin (OSM) for 6 hours followed by detection of Stat3-luc reporter activity.

[6] = system: DLD1 cells; test: MTT cell viability, DLD1; assay type: cell-based; conditions: Homo sapiens, DLD-1; DLD1, Colon; MTT at 24 hours; Table 3
Excerpt: as §1, §2, §3

[7] = system: SW480 cells; test: MTT cell viability, SW480; assay type: cell-based; conditions: Homo sapiens; SW480, Colon; MTT at 24 hours; Table 3
Excerpt: as §1, §2, §3

[8] = system: Paca2 cells; test: MTT cell viability, Paca2; assay type: cell-based; conditions: PaCa-2; Paca2, Pancreas; MTT at 24 hours; Table 3
Excerpt: as §1, §2, §3

[9] = system: Panc1 cells; test: MTT cell viability, Panc1; assay type: cell-based; conditions: Homo sapiens, PANC-1; Panc1, Pancreas; MTT at 24 hours; Table 3
Excerpt: as §1, §2, §3

[10] = system: PC3 cells; test: MTT cell viability, PC3; assay type: cell-based; conditions: Homo sapiens, PC-3; PC3, Prostate; MTT at 24 hours; Table 3
Excerpt: as §1, §2, §3

[11] = system: SW480 Hoechst SP cells; test: Anti-CSC MTT assay, SW480 Hoechst side population (SP) cells; assay type: cell-based; conditions: Homo sapiens, 48 h
Procedure: as §2
(§4) Hoechst Side Population: To identify and isolate side population (SP) and non-SP fractions, SW480 cells were removed from the culture dish with trypsin and EDTA, pelleted by centrifugation, washed with phosphate-buffered saline (PBS), and resuspended at 37° C. in Dulbecco's modified Eagle's medium (DMEM) containing 2% FBS and 1 rnM HEPES. The cells were then labeled with Hoechst 33342 (Invitrogen) at a concentration of 5 μg/mL. The labeled cells were incubated for 120 minutes at 37° C., either alone or with 50 μM verapamil (Sigma-Aldrich, St. Louis). After staining, the cells were suspended in Hanks' balanced saline solution (MISS; Invitrogen) containing 2% FBS and 1 mM HEPES, passed a through 40 μm mesh filter, and maintained at 4° C. until flow cytometry analysis. The Hoechst dye was excited at 350 nm, and its fluorescence was measured at two wavelengths using a 450 DF10 (450/20 nm band-pass filter) and a 675LP (675 nm long-pass edge filter) optical filter. The gating on forward and side scatter was not stringent, and only debris was excluded.
(§5) In order to test compounds for anti-CSC activity, freshly isolated CSCs (SW480 Hoechst SP cells or CD44^high FaDu cells) were exposed to a dose range (30-0.117 μM) of compound for 48 h before examining cell viability by MTT assay. IC50s were estimated by plotting the percentage of surviving cells. As shown in Table 7 and Table 8, the compounds of present invention can target cancer stem cells.

[12] = system: SW480 NSP cells; test: Anti-CSC MTT assay, SW480 non-SP (NSP) cells; assay type: cell-based; conditions: Homo sapiens, 48 h
Procedure: as §2, §4, §5

[13] = H1299, Table 4, read-out: IC50 (μM) H1299
[14] = Hela, Table 4, read-out: IC50 (μM) Hela
[15] = DU145, Table 4, read-out: IC50 (μM) DU145

Compound | IC50 [1, 13] [µM] | IC50 [2, 14] [µM] | IC50 [3, 15] [µM] | further results
O=C1c2ccccc2C(=O)c2oc(Cc3ccccc3)cc21 [Compound 103] | 8.9 | 16.7 | > 10 | inhibition % 1 × MTT IC50 [4]: 98%; inhibition % 3 × MTT IC50 [4]: 26%
CC(=O)OC(C)c1cc2c(o1)C(=O)c1cc(F)ccc1C2=O (stereo not shown) [Compound 305] |  | 1.71 | 1.1 | 
CC(=O)c1cc2c(s1)C(=O)c1ccccc1C2=O [Compound 409] | 1.03 | 1.88 | 0.442 | IC50 [5]: ~2000 nM
CCc1cc2c(o1)C(=O)c1ccccc1C2=O [Compound 101] | 3 to 10 | 11.7 | 3.7 | 
Cc1oc2c(c1-c1ccccc1)C(=O)c1ccccc1C2=O [Compound 108] |  | 20.7 | 30.8 | 
O=C(c1ccccc1)c1cc2c(o1)C(=O)c1cc(F)ccc1C2=O [Compound 419] |  |  | 1.82 | 
Cc1cc2c(o1)C(=O)c1ccccc1C2=O [Compound 102] |  | 11.4 |  | 
O=C(c1ccccc1)c1cc2c(s1)C(=O)c1ccccc1C2=O [Compound 402] | 1.04 | 2.01 | 0.554 | IC50 ([1]; H1299, Lung, Table 3, read-out: IC50): 1.04 µM; IC50 ([2]; HeLa, Cervix, Table 3, read-out: IC50): 2.01 µM; IC50 [6]: 2510 nM; IC50 [7]: 1490 nM; IC50 [8]: 490 nM; IC50 [9]: 7.21 µM; IC50 ([3]; DU145, Prostate, Table 3, read-out: IC50): 0.55 µM; IC50 [10]: 8.48 µM; IC50 [5]: ~750 nM; inhibition % 1 × MTT IC50 [4]: 29%; inhibition % 3 × MTT IC50 [4]: 57%; IC50 [11]: 0.4 µM; IC50 [12]: 0.38 µM
O=C(c1cccc(Cl)c1)c1cc2c(o1)C(=O)c1ccccc1C2=O [Compound 417] |  |  | 0.768 | 
CC(O)c1cc2c(o1)C(=O)c1ccccc1C2=O (stereo not shown) [Compound 301] | 0.794 | 3.36 |  | inhibition % 1 × MTT IC50 [4]: 20%; inhibition % 3 × MTT IC50 [4]: 26%
CCc1cc2c(o1)C(=O)c1cc(F)ccc1C2=O [Compound 106] |  |  | 4.84 | inhibition % 1 × MTT IC50 [4]: 26%; inhibition % 3 × MTT IC50 [4]: 51%; IC50 [11]: 4.44 µM; IC50 [12]: 2 µM
O=C(c1ccc(O)cc1)c1cc2c(s1)C(=O)c1ccccc1C2=O [Compound 408] | 3.62 | 4.47 | 0.554 | IC50 [5]: ~2000 nM
COc1ccc(C(=O)c2cc3c(o2)C(=O)c2ccccc2C3=O)cc1OC [Compound 413] | 1.9 | 4.38 | 0.721 | 
O=C(c1ccccc1)c1cc2c(o1)C(=O)c1cc(Br)ccc1C2=O [Compound 415] | 6.5 | 10.5 | 9.8 | 
O=C(c1ccc([N+](=O)[O-])cc1)c1cc2c(s1)C(=O)c1ccccc1C2=O [Compound 403] | 4 |  | 6.5 | 
O=C(c1ccc(O)c(O)c1)c1cc2c(s1)C(=O)c1ccccc1C2=O [Compound 411] | 14.1 | 14.7 | 0.616 | 
CCc1cc2c(o1)C(=O)c1cc(Cl)ccc1C2=O [Compound 105] | 8.4 | 13 | 6.5 | 
COc1ccc(C(=O)c2cc3c(s2)C(=O)c2ccccc2C3=O)cc1 [Compound 407] | 4.11 | 3.78 | 2.1 | IC50 [5]: ~5000 nM
CC(=O)OC(C)c1cc2c(o1)C(=O)c1ccccc1C2=O (stereo not shown) [Compound 303] |  |  | 2.88 | 
O=C(O)c1cc2c(o1)C(=O)c1ccccc1C2=O [Compound 405] |  |  | 1.41 | 
COc1ccc(C(=O)c2cc3c(s2)C(=O)c2ccccc2C3=O)cc1OC [Compound 410] | 1.88 | 2.52 | 0.239 | IC50 [5]: ~1000 nM
C=Cc1cc2c(o1)C(=O)c1ccccc1C2=O [Compound 201] |  |  | 1.76 | 
O=Cc1cc2c(o1)C(=O)c1ccccc1C2=O [Compound 414] | 11.3 | 13 | 14.1 | 
